Test results: the NIST ThermoML archive (doi:10.1016/j.jct.2016.08.010)

Assays:
[1] = xn = mol fraction of the nth substance listed; conditions: 100 kPa, Liquid; for speed of sound: Frequency=3 MHz, Sing-around technique in a fixed-path interferometer; for mass density: Vibrating tube method
[2] = molar heat capacity at constant pressure; xn = mol fraction of the nth substance listed; conditions: 100 kPa, Liquid, Small sample (50 mg) DSC
[3] = molar heat capacity at constant pressure; conditions: 100 kPa, Small sample (50 mg) DSC
[4] = 100 kPa; for speed of sound: Frequency=3 MHz, Sing-around technique in a fixed-path interferometer; for mass density: Vibrating tube method

CCn1cc[n+](C)c1.F[B-](F)(F)F [1-ethyl-3-methylimidazolium tetrafluoroborate] + CCCCn1cc[n+](C)c1C.F[B-](F)(F)F
x2 = 0
Conditions | mass density, [1] [kg/m3] | molar heat capacity at constant pressure, [2] [J/K/mol] | speed of sound, [1] [m/s]
293.15 K | 1283.9 | 303.2 | 1631.1
298.15 K | 1279.9 | 304.53 | 1619.2
303.15 K | 1276.3 | 306.29 | 1607.4
308.15 K | 1272.1 | 308.03 | 1596.2

CCCCn1cc[n+](C)c1.F[B-](F)(F)F [1-butyl-3-methylimidazolium tetrafluoroborate]
Liquid
Conditions | mass density, [4] [kg/m3] | molar heat capacity at constant pressure, [3] [J/K/mol] | speed of sound, [4] [m/s]
293.15 K | 1203.1 | 362.35 | 1578.1
298.15 K | 1198.9 | 365.12 | 1565.5
303.15 K | 1195.3 | 367.48 | 1554.1
308.15 K | 1191.7 | 369.88 | 1542.3

CCCCn1cc[n+](C)c1C.F[B-](F)(F)F [1-butyl-2,3-dimethylimidazolium tetrafluoroborate]
Metastable liquid
Conditions | mass density, [4] [kg/m3] | molar heat capacity at constant pressure, [3] [J/K/mol] | speed of sound, [4] [m/s]
293.15 K | 1193.5 | 413.03 | 1659.7
298.15 K | 1191.8 | 416.01 | 1645.7
303.15 K | 1189.7 | 418.84 | 1632.5
308.15 K | 1187.9 | 421.7 | 1619.8

CCCCn1cc[n+](C)c1.F[B-](F)(F)F [1-butyl-3-methylimidazolium tetrafluoroborate] + CCn1cc[n+](C)c1.F[B-](F)(F)F
x1 = 1
Conditions | mass density, [1] [kg/m3] | molar heat capacity at constant pressure, [2] [J/K/mol] | speed of sound, [1] [m/s]
293.15 K | 1203.1 | 362.35 | 1578.1
298.15 K | 1198.9 | 365.12 | 1565.5
303.15 K | 1195.3 | 367.48 | 1554.1
308.15 K | 1191.7 | 369.88 | 1542.3

CCn1cc[n+](C)c1.F[B-](F)(F)F [1-ethyl-3-methylimidazolium tetrafluoroborate]
Liquid
Conditions | mass density, [4] [kg/m3] | molar heat capacity at constant pressure, [3] [J/K/mol] | speed of sound, [4] [m/s]
293.15 K | 1283.9 | 303.2 | 1631.1
298.15 K | 1279.9 | 304.53 | 1619.2
303.15 K | 1276.3 | 306.29 | 1607.4
308.15 K | 1272.1 | 308.03 | 1596.2

CCCCn1cc[n+](C)c1.F[B-](F)(F)F [1-butyl-3-methylimidazolium tetrafluoroborate] + CCCCn1cc[n+](C)c1C.F[B-](F)(F)F
x2 = 0
Conditions | mass density, [1] [kg/m3] | molar heat capacity at constant pressure, [2] [J/K/mol] | speed of sound, [1] [m/s]
293.15 K | 1203.1 | 362.35 | 1578.1
298.15 K | 1198.9 | 365.12 | 1565.5
303.15 K | 1195.3 | 367.48 | 1554.1
308.15 K | 1191.7 | 369.88 | 1542.3
